Assay results reported in ChEMBL document CHEMBL5356934, “Antibacterial activities of anthraquinones: structure-activity relationships and action mechanisms” (RSC Med Chem, 2023).
Values after ≈ are worked out from the molar mass of the structure shown. One block for each compound: values may come before it.

Key:
[1] = system: Enterococcus faecium; test: Antibacterial activity against vancomycin susceptible Enterococcus faecium119-39A assessed as inhibition of bacterial growth by broth microdilution method; type: functional; conditions: 119-39A
[2] = system: Staphylococcus aureus; test: Antibacterial activity against methicillin-resistant Staphylococcus aureus J-108; type: functional
[3] = system: Staphylococcus aureus; test: Antibacterial activity against methicillin-susceptible Staphylococcus aureus assessed as reduction in bacterial growth; type: functional
[4] = system: Enterococcus faecium; test: Antibacterial activity against vancomycin-resistant Enterococcus faecium; type: functional
[5] = system: Pseudomonas aeruginosa; test: Antibacterial activity against wild type Pseudomonas aeruginosa ATCC 27853 after 24 hrs by microbroth dilution method; type: functional
[6] = system: Staphylococcus aureus; test: Antibacterial activity against Staphylococcus aureus ATCC 25923 assessed as reduction in microbial growth after 24 hrs by spectrophotometric method; type: functional
[7] = system: Salmonella typhimurium; test: Antibacterial activity against Salmonella typhimurium ATCC 1255 assessed as reduction in bacterial growth; type: functional, Salmonella enterica subsp. enterica serovar Typhimurium; conditions: Salmonella enterica
[8] = system: Staphylococcus aureus; test: Antibacterial activity against Staphylococcus aureus NCTC 11994 assessed as reduction in bacterial growth; type: functional
[9] = system: Staphylococcus aureus; test: Antibacterial activity against Staphylococcus aureus assessed as diameter of inhibition zone; type: functional
[10] = system: Bacillus cereus; test: Antibacterial activity against Bacillus cereus; type: functional

SMILES: COc1cc2oc3cc(O)c(OC)c(CC=C(C)C)c3c(=O)c2c(O)c1CC=C(C)C
MIC [1]: 6.25 µg/mL (≈ 14.7 µM)
MIC [2]: 3.13 µg/mL (≈ 7.37 µM)
MIC [3]: 6.25 µg/mL (≈ 14.7 µM)
MIC [4]: 6.25 µg/mL (≈ 14.7 µM)

SMILES: CN(CCO)CC(O)COc1cccc2c(=O)c3ccccc3oc12 (stereo not drawn)
MIC [6]: < 20 µg/mL

SMILES: COc1cc2c(c(O)c1OC)c(=O)c1ccc(O)cc1n2C
diameter of the inhibition zone (DIZ) [9]: 9.58 mm

SMILES: COC1=CC(=O)c2c(O)c3c(c(O)c2C1=O)CC(C)(O)C(OC(C)=O)C3 (stereo not drawn)
MIC [10]: 0.0088 µM (≈ 0.00319 µg/mL)

Continued, values first:

MIC [5]: 32 µg/mL (≈ 90.5 µM)
SMILES: CCCOc1ccc(N2CCCCC2)c2c(=O)c3ccccc3sc12

MIC [5]: 32 µg/mL (≈ 118 µM)
SMILES: COc1cc(C=O)c2c(=O)c3ccccc3oc2c1O

MIC [7]: 0.18 µM (≈ 0.0995 µg/mL)
MIC [8]: 0.72 µM (≈ 0.398 µg/mL)
SMILES: COc1cc(C)c2c(c1[C@@H]1O[C@@H](CO)C(O)[C@@H](O)[C@@H]1OC(=O)/C=C\c1ccc(O)cc1)CC(CC(C)=O)=CC2=O (stereo partly drawn)

MIC [6]: < 20 µg/mL
SMILES: C=CCNCC(O)COc1ccc2c(=O)c3cccc(C)c3oc2c1 (stereo not drawn)

MIC [5]: 32 µg/mL (≈ 118 µM)
SMILES: COc1c(O)c(C=O)cc2c(=O)c3ccccc3oc12
